Reference: patent publication US7419960B2, “Hemiterpene glycosides with anti-platelet aggregation activities from Ilex pubescens” (Hong Kong Baptist University, priority 2005, dated 2008)
Marks after values point to notes of the source that are not given here.

Test system: platelet-rich-plasma (PRP)
Experiment: Shear-induced platelet aggregation (SIPA) in platelet-rich-plasma, determined by turbidity
Type: cell-based, Sprague-Dawley rats
Details: 10 μM; for Platelet aggregation rate (%) ( X ± SD): n=10, rat PRP, shear stress 15 Pa for 360 seconds, 37° C., PPP = 100%, pre-shear PRP = 0% aggregation, Control 54.400 ± 8.592; for anti-platelet aggregation activity compared with salvianolic acid B and aspirin: high shear stress-induced platelet activation and aggregation test
Protocol: Preparation of platelet-rich-plasma (PRP): Sprague-Dawley rats (350-450 g) were used as blood donors to collect anticoagulated blood. Collected blood samples were immediately transferred into a plastic tube anticoagulant ( 1/10 volume of 3.8% trisodium citrate, pH 7.4). The platelet-rich-plasma (PRP) was then prepared by centrifuging the blood at 300 rpm for 15 minutes. The platelet concentration was adjusted to a level of 5×10^5/μl by addition of homologous platelet-poor-plasma (PPP) obtained after further centrifugation of blood at 1500 rpm for 15 minutes. For getting sufficient amount of PRP, at least two rats have to be sacrificed each time to obtain a pooled PRP sample.
Shear-induced platelet aggregation (SIPA): Adjusted PRP was divided into different groups according to the experimental protocol, mixed with 10 μM of pubescenosides A, B, aspirin and Salvianolic acid B. HAAke Rheometer RS 600 (Thermo Haake Corp., Ltd., Germany) with sensor C60/0.5° was employed as shear generator. The rheometer has the benefit of controlling shear stress and with an accuracy of 1 μm by the automatic adjustment of the gap between cone and plate. The shear program for PRP is: preheating sample at 37° C., increasing stress level from 0 to 15 Pa in the duration of 30 seconds, and then maintaining the stress level at 15 Pa for 360 seconds. After shearing, PRP was transferred to a platelet aggregometer (Chrono-Log aggregometer, Model 560 CA, Chrono-Log Corp., U.S.A) and SIPA was determined by turbidity. Since platelet-poor-plasma (PPP) and the pre-shear PRP were used as the turbidity scales of 100% and 0% aggregation, respectively, the aggregative degree of post-shear PRP could be measured.

SMILES | Platelet aggregation rate (%) ( X ± SD) | anti-platelet aggregation activity compared with salvianolic acid B and aspirin
CC(=O)Oc1ccccc1C(=O)O [Aspirin, aspirin, reference compound] | 44.700 ± 4.668 % | 
C=C(COC(=O)/C=C/c1ccc(O)c(O)c1)C(O)CO[C@@H]1O[C@H](CO)[C@@H](O)[C@H](O)[C@H]1O (stereo partly drawn) [Pubescenoside A, 4-caffeoyloxy-2-hydroxy-3-methylene-butane-1-O-β-D-glucopyranoside] | 36.550 ± 7.697*^▪▴ % | much stronger
C=C(CO)C(CO[C@@H]1OC(CO)[C@@H](O)C(O)C1O)OC(=O)/C=C/c1ccc(O)c(O)c1 (stereo partly drawn) [Pubescenoside B, 4-hydroxy-2-caffeoyloxy-3-methylene-butane-1-O-β-D-glucopyranoside] | 27.300 ± 10.263*^□ % | much stronger
O=C(/C=C/c1ccc(O)c2c1[C@H](C(=O)O[C@H](Cc1ccc(O)c(O)c1)C(=O)O)[C@@H](c1ccc(O)c(O)c1)O2)O[C@H](Cc1ccc(O)c(O)c1)C(=O)O [Salvianolic acid B, salvianolic acid B, reference compound] | 39.650 ± 8.577 % | 
